3 compounds from patent US20100247602A1, “METHOD OF REDUCING THE EFFECTS OF CYTOSTATIC DRUGS ON BONE MARROW DERIVED CELLS, AND METHODS OF SCREENING” (priority 2007, published 2010) can be followed below.

pIC50: −log10 of the molar value. “Also recorded” adds a separate entry of the source.

For data set [1], the system named is bone marrow derived cells (BMDCs). Kind of data set: Necrosis and apoptosis levels (annexin V / propidium iodide flow cytometry). The data set is classed as cell-based, mouse (C57BL/6 female mice). The settings on record: for number of annexin V positive cells: drug at IC90 dose, 48 hrs. The procedure:
After being cultured and isolated as described above, BMDCs were plated in 12-well culture plate. […] The cells were analyzed 24, 48 and 72 hours later after staining with FITC-conjugated annexin V (Alexis biochemical, San Diego, Calif.) and propidium iodide (PI, Sigma). Acquisition and analysis were performed on an Epics Altra cytometer as described in the section above “Analysis of the differentiation profile”.
In order to evaluate the effect of E2, paclitaxel or rapamycin on early apoptosis, late apoptosis and necrosis, BMDC were treated with either E2, paclitaxel or rapamycin and stained with annexin V and propodium iodine. Cells positive for annexin V only are considered in the early phases of apoptosis while cells positive for propodium iodine only are in necrosis. Cells which stained for both annexin V and propiodium iodine are in a more advanced apoptotic process (FIG. 6). The effect of E2 on the levels of apoptotic and necrotic cells in rapamycin or paclitaxel-treated cells was evaluated (FIG. 7)
On the technique in general: Flow cytometry measures light scatter and fluorescence of single cells or particles in a stream.

In another data set the test system is ERβ. Kind of data set: Western blot, ERβ expression in BMDCs / mBMPC. The class given is cell-based, mouse. The procedure:
(§1) Membranes were stripped with Re-Blot Plus™ (International Chemicon) and total protein expression was determined with a goat polyclonal β-actin (1:1000 dilution, Santa Cruz Biotechnology Inc.).

Data set [2] has as its system bone marrow derived cells (BMDCs). Kind of data set: Proliferation assay of BMDCs (cell count with trypan blue). The class given is cell-based, mouse (C57BL/6 female mice). Conditions: for pIC50: Mus musculus, BMDC, 168 h, one week treatment, cellular count, read-out: IC50 for cell growth. The procedure:
(§2) BMDCs were cultured and isolated as described above.
After this time, cells were processed as described above.

The test system is the same in data set [3]. Kind of data set: Differentiation profile of BMDCs by flow cytometry. The class given is cell-based, mouse (C57BL/6 female mice). The settings on record: for percentage of CD117+ cells: E2 alone (10^−9M) or in combination with paclitaxel (5×10^−9 M), one week; for total or sub-populations of CD44+ cells: one week treatment, paclitaxel 5×10^-9M, rapamycin 10^-10M, alone or in combination. The procedure: as §2
BMDCs were plated and grown during 7 days before treatment (stimulation). Rapamycin (LC Laboratories) or paclitaxel (LC laboratories) were added for a one week treatment at IC50 concentration. Afterward, cells were washed twice in PBS and non specific binding sites were blocked with 5% normal rat serum (Jackson Immunoresearch Laboratories Inc.). To evaluate the differentiation profile of the BMDCs, quadruple stainings were performed as follow: 1) for the HSC allophycocyanin (APC, Caltag Laboratories, Carlsbad, Calif.) conjugated monoclonal rat-anti-mouse CD117, fluorescein isothiocyanate (FITC, BD pharmingen, San Jose, Calif.) conjugated monoclonal rat anti-mouse CD31 (platelet endothelial cell adhesion molecules-1, PECAM), biotin conjugated monoclonal rat anti-mouse CD34 (Bio, BD pharmingen), growth factor receptor-2 (VEGFR2); and 2) for the stromal cells: APC (Abcam Inc., Cambridge Mass.) conjugated monoclonal rat anti-mouse CD90, FITC conjugated (BD pharmingen) monoclonal rat anti-mouse CD44 (hyaluronic acid receptor), PE conjugated monoclonal rat anti-mouse vascular cell adhesion molecule (V-CAM/CD106, Abcam Inc.), biotin (Abcam Inc.) conjugated monoclonal rat anti-mouse CD105 (Endoglin). Corresponding isotype antibodies were used as negative controls; monoclonal rat anti-mouse IgG2a-APC (Abcam Inc.), monoclonal rat anti-mouse IgG2a-FITC, (Abcam Inc.), monoclonal rat anti-mouse IgG2a-PE (BD pharmingen), monoclonal rat anti-mouse IgG2a-Bio (Abcam Inc.). To analyze the biotin conjugated antibody, a secondary antibody streptavidine-ECD (Beckman coulter, Fullerton, Calif.) was used. Data acquisition was performed using 1×10^6 events per sample. Of these events, only low-to-medium FSC (forward scattered channel) and SSC (side scattered channel) singlets were gated for analysis of BM subpopulations. In all cases, gated singlets represented 80 to 90% of acquired events. The acquisition and analysis were performed on an Epics Altra cytometer from Beckman using the EXPO™ 32 system ADC software (Beckman Coulter, Fullerton, Calif.).

Data set [4] has the same test system. The source says: Six-week old C57BL/6 female mice (Jackson Laboratoiries, Bar Harbor, Mass.) were used as bone marrow donors. The mice were euthanized by a ketamine hydrochloride (Bioniche, Belleville, ON) and xylazine (Rompum, Bayer's Inc, Toronto, ON) injections. Total bone marrow cells were collected from femurs and tibia, pooled, and washed twice with phosphate-buffered saline (PBS, Invitrogen corp., Carlsbad, Calif.) contained 2% fetal bovine serum (FBS, Hyclone Laboratories, Logan, Utah). All the bone marrow derived cells (BMDCs) were plated in 6-wells culture plates (Corning, Corning, N.Y.) precoated with rat fibronectin (Calbiochem, San Diego, Calif.), in Hematopoietic Growth Medium (HPGM Lonza, Walkersvelle, Md.) contained 2% fetal bovine serum (FBS, Hyclone Laboratories) and antibiotics (1% penicillin-streptomycin, Invitrogen corp.). Cells were grown in presence of 10 ng/mL platelet derived growth factor (PDGF, Peprotech. Inc, Rocky Hill, N.J.) and 10 ng/mL […] (EGF, Peprotech. Inc.) during the first 7 days. The experimental protocol was approved by the animal care committee of the Montreal Heart Institute.
BMDCs were cultured and isolated as described above. At day 7, complete culture medium was replaced by an incomplete culture medium: HPGM medium, 2% fetal bovine serum ([…] EGF and PDGF), and 1% antibiotics (penicillin and streptomycin) with or without E2 (10^−10 M to 10^−6 M) (Sigma) and/or rapamycin (10^−11M to 10^−6 M) (LC Laboratories, Woburn, Mass.) or paclitaxel (10^−11M to 10^−6 M) (LC laboratories) for another 7 days. In the case of combined treatment, the E2 was added 24 h prior the addition of the drug. First medium change was performed four days after plating and each following three days for a total of 14 days in culture.
After this treatment, the cells were removed from the 6-well culture plate using a 0.02% solution of (ethylenedinitrilo) tetraacetic acid (EDTA, Sigma) and diluted 1:1 in Trypan blue (Invitrogen corp.) before cell count with a hemacytometer (Hausser Bright-line). Total cells number, white cells and blue stained cells were counted. The proliferation rate was defined as the total number of cells over the number of cells at day 0 of the initiation of the treatment. The survival rate was defined as the number of white cells among the total cell population. The mortality rate was defined as the percentage of blue cells (dead cells) among the total cell population. […] The combination assay was achieved by a 24-hour pretreatment of BMDCs with different concentrations of E2 (10^−8 to 10^−10 M) and the drug was added at its IC50 concentration for a one week treatment. After this time, cells were processed as described above.

The test system of data set [5] is ERα and ERβ expressed by BMDCs. Kind of data set: Western blot, ratio of ERα expression over ERβ in BMDCs. Conditions: 24-hour stimulation, at 10^−8 and 10^−7M. The class given is cell-based, mouse (C57BL/6 female mice). The procedure: as §1
In general terms: Immunoblotting shows a protein as a band on a membrane.

The subject of another data set is ERα. The data set is described as follows: Western blot, ERα expression in BMDCs / mBMPC. The settings on record: paclitaxel-treated cells, 24 h, 10^−8 and 10^−7M.

Turning to `C[C@]12CC[C@@H]3c4ccc(O)cc4CC[C@H]3[C@@H]1CC[C@@H]2O` [E2, 17-beta-estradiol], the “apoptotic and necrotic cells rates” value in data set [1] (1 week incubation, alone or in combination with E2, flow cytometry) is recorded as “no appreciable differences”. Moreover, in data set [1] (E2 combined with rapamycin IC50, 48 hrs, compared to rapamycin IC50 alone), the “percentage of annexin V positive cells” value is “tended to reduce”. The “blocking of the drug-induced (IC90) increase of annexin V positive cells” value in data set [1] (E2 combined with rapamycin or paclitaxel at IC90, 48 hrs stimulations) was “could not be blocked”. The “regulation of ERβ expression” value in the data set on ERβ (mBMPC, 24-hour stimulation with various doses of E2 (not shown)) was “No regulation”. In data set [2] (one-week treatment with a dose range of E2, compared to cells maintained in HPGM), the “number of living cells” value is reported as “not affected”. Besides, in data set [3], the “percentage of CD117+ cells” value was “tended to increase; also recorded: increases” and the “total or sub-populations of CD44+ cells” value is on record as “no effect”. Moreover, the “percentage of CD117+ cells” value in data set [3] (listed as Estradiol) is “increase”. Also, the “level (%) of CD117+ cells in paclitaxel-treated BMDCs” value in data set [3] (in the presence of E2 (24 h pre-treatment), paclitaxel 5×10^−9 M) is reported as “higher level”. In data set [3] (two weeks in culture including one week with various doses of E2), the “number of CD14+ cells” value is “does not influence”. For the same compound, in data set [4], the “dead cells (percentage of dead cells)” value is “not affected” and the “reduction of mortality rate” value is 7-11%. Besides, the “improvement of survival rate” value in data set [4] (10^−10M E2 added to rapamycin or paclitaxel at IC50, one week, compared to cells treated with the drug only) was “about 30%”.
`CC(=O)O[C@H]1C(=O)[C@@]2(C)[C@H]([C@H](OC(=O)c3ccccc3)[C@]3(O)C[C@H](OC(=O)[C@H](O)[C@@H](NC(=O)c4ccccc4)c4ccccc4)C(C)=C1C3(C)C)[C@]1(OC(C)=O)CO[C@@H]1C[C@@H]2O` [paclitaxel]: the “drop in ERα/ERβ ratio” value in data set [5] is given as “up to 50%”. Further, in data set [1], the “number of annexin V positive cells” value is on record as “increased significantly”. In addition, the ERβ expression entry with ERβ (paclitaxel-treated cells, 24 h, 10^−8 and 10^−7M) is “induction”. The “effect on proliferation at very low doses” value in data set [2] (BMDCs, one week, very low doses) is given as “proliferative effect”. Further, in data set [2] (BMDCs), the negative-log IC50 (pIC50) (commonly −log10 of the IC50, conventionally taken in molar units) is 8.30. The “total or sub-populations of CD44+ cells” value in data set [3] was “no effect”. Besides, the “differentiation profile of CD117+ or CD44+” value in data set [3] (one-week treatment at IC50 concentration) was “does not affect”. Moreover, in data set [4], the “mortality rate, drug alone” value is given as “not observed” and the “toxicity on bone marrow derived cells” value was “toxic”. The ERα expression result with ERα was “decrease”.
Take `CO[C@H]1C[C@@H]2CC[C@@H](C)[C@@](O)(O2)C(=O)C(=O)N2CCCC[C@H]2C(=O)O[C@H]([C@H](C)C[C@@H]2CC[C@@H](O)[C@H](OC)C2)CC(=O)[C@H](C)/C=C(\C)[C@@H](O)[C@@H](OC)C(=O)[C@H](C)C[C@H](C)/C=C/C=C/C=C/1C` [rapamycin]: the “number of annexin V positive cells” value in data set [1] is “increased significantly”. Besides, the pIC50 in data set [2] (BMDCs) was 10.00. Also, the “total or sub-populations of CD44+ cells” value in data set [3] was “no effect”. In addition, in data set [4], the “mortality rate, drug alone” value was “significantly increased” and the “toxicity on bone marrow derived cells” value is “toxic”.
